# Data taken from US6566334B1, “Short amphipathic peptides with activity against bacteria and intracellular pathogens” (priority 1997, dated 2003).
# Where a SMILES comes first, the peptide text is derived from it. [ ]: non-standard residue; d: D form. Ac6c = NC1(C(=O)O)CCCCC1; Api = NC1(C(=O)O)CCNCC1; Aib = CC(C)(N)C(=O)O
# Assays:
# [1] = tested on: Staphylococcus aureus, ATCC 25723; settings: for Peptide minimum inhibitory concentration, S. aureus: MIC after 4 h, median of 3-7 tests, corrected for actual peptide concentration
# [2] = tested on: Escherichia coli, ATCC 25922; settings: for Peptide minimum inhibitory concentration, E. coli: MIC after 4 h, median of 3-7 tests, corrected for actual peptide concentration
# [3] = tested on: Normal murine macrophages; settings: 10 μM
# in vitro = settings: BALB/c, mouse, normal (non-infected) primary murine peritoneal macrophages, Normal Macrophage Survival Rate
# trypsin = trypsin (Sus scrofa, UniProt P00761); assay: Resistance to trypsin, E. coli MIC assay after trypsin incubation; settings: trypsin 20 min at 37° C., then MIC assay with E. coli
# trypsin, sequence (P00761 9-231): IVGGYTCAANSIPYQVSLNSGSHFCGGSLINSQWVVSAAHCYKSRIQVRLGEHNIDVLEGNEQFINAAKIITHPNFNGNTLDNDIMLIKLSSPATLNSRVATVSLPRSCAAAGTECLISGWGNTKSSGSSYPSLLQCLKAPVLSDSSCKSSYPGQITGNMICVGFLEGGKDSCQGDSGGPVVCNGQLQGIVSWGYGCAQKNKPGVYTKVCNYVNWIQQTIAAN
# [4] = tested on: B. abortus infected BALB/c mice; settings: mouse, in vivo
# Solubility in water = settings: without any organic modifier present
# B. abortus strain 2308 = tested on: B. abortus strain 2308; set-up: species or system BALB/c mice; settings: mouse, in vivo; for % Bacterial Reduction: iv
# [5] = Circular dichroism (CD) in SDS micelles, percent helicity; assay type: physicochemical
# [6] = tested on: Murine macrophages infected with virulent B. abortus, strain 2308; assay type: cell-based, BALB/c mice
Molecule,"Peptide minimum inhibitory concentration, S. aureus [1] [µM]","Peptide minimum inhibitory concentration, E. coli [2] [µM]","viability at 1 h, 0.1 µM (in vitro) [%]","viability at 1 h, 1 µM (in vitro) [%]","viability at 1 h, 10 µM (in vitro) [%]","viability at 1 h, 50 µM (in vitro) [%]",Effect of incubation with trypsin on antibacterial activity (trypsin),Stress or death of infected mice after treatment [4],further results
"CC(C)(NC(=O)C(C)(C)NC(=O)[C@H](CCCCN)NC(=O)[C@H](CCCCN)NC(=O)C(C)(C)NC(=O)C(C)(C)NC(=O)[C@H](CCCCN)NC(=O)C(C)(C)NC(=O)C(C)(C)NC(=O)[C@H](CCCCN)NC(=O)[C@@H](N)CCCCN)C(N)=O [Ai-11, H—LysLysAibAibLysAibAibLysLysAibAib—NH2] (H-KK[Aib][Aib]K[Aib][Aib]KK[Aib][Aib]-NH2)",>220,55,88,89,81,56.6,did not decrease antibacterial activity,,Effect of peptide treatment on normal macrophages (in words) [3]: small effect
"H-KWKVFKKIEKMGRNIRNGIVKAGPAIAVLGEAKAL-NH2 [cecropin B, reference compound]",,,,,,,destroyed antibacterial activity,,
"CC(=O)NC1(C(=O)NC(C)(C)C(=O)NC(C)(C)C(=O)N[C@@H](CCCCN)C(=O)NC(C)(C)C(=O)NC(C)(C)C(=O)N[C@@H](CCCCN)C(=O)NC(C)(C)C(=O)NC(C)(C)C(=O)NC2(C(N)=O)CCNCC2)CCNCC1 [Ipi-10-ac, Ac—ApiAibAibLysAibAibLysAibAibApi—NH2] (Ac-[Api][Aib][Aib]K[Aib][Aib]K[Aib][Aib][Api]-NH2)",,,,,,,,"did not die, but showed physiological signs of stress",
"CC(C)(NC(=O)[C@H](CCCCN)NC(=O)C(C)(C)NC(=O)C(C)(C)NC(=O)C1(N)CCNCC1)C(=O)NC(C)(C)C(=O)N[C@@H](CCCCN)C(=O)NC(C)(C)C(=O)NC(C)(C)C(=O)NC1(C(N)=O)CCNCC1 [Ipi-10, H—ApiAibAibLysAibAibLysAibAibApi—NH2] (H-[Api][Aib][Aib]K[Aib][Aib]K[Aib][Aib][Api]-NH2)",,,,,,,did not decrease antibacterial activity,"did not die, but showed physiological signs of stress",Solubility in water (Solubility in water): readily soluble in water; % Bacterial Reduction (B. abortus strain 2308): 55%; 222/206 intensity ratio (CD) ([5]; in the presence of SDS micelles): 0.32
"NCCCC[C@H](NC(=O)[C@H](CCCCN)NC(=O)C1(NC(=O)C2(NC(=O)[C@H](CCCCN)NC(=O)C3(NC(=O)C4(NC(=O)[C@H](CCCCN)NC(=O)[C@@H](N)CCCCN)CCCCC4)CCCCC3)CCCCC2)CCCCC1)C(=O)NC1(C(N)=O)CCCCC1 [Ch-10, H—LysLysChChLysChChLysLysCh—NH2] (H-KK[Ac6c][Ac6c]K[Ac6c][Ac6c]KK[Ac6c]-NH2)",2.8,5.7,,,,,did not decrease antibacterial activity,died immediately after treatment,Survival of infected mice after treatment [4]: lived
"CC(C)(NC(=O)C(C)(C)NC(=O)[C@H](CCCCN)NC(=O)[C@H](CCCCN)NC(=O)C(C)(C)NC(=O)C(C)(C)NC(=O)[C@H](CCCCN)NC(=O)C(C)(C)NC(=O)C(C)(C)NC(=O)[C@H](CCCCN)NC(=O)[C@H](CCCCN)NC(=O)C(C)(C)NC(=O)C(C)(C)NC(=O)[C@@H](N)CCCCN)C(N)=O [Ai-14, H—LysAibAibLysLysAibAibLysAibAibLysLysAibAib—NH2] (H-K[Aib][Aib]KK[Aib][Aib]K[Aib][Aib]KK[Aib][Aib]-NH2)",11,5.5,91,88,88,57,did not decrease antibacterial activity,,
"NCCCC[C@H](NC(=O)[C@H](CCCCN)NC(=O)C1(NC(=O)C2(NC(=O)[C@H](CCCCN)NC(=O)C3(NC(=O)C4(NC(=O)[C@H](CCCCN)NC(=O)[C@@H](N)CCCCN)CCCCC4)CCCCC3)CCCCC2)CCCCC1)C(=O)NC1(C(=O)NC2(C(N)=O)CCCCC2)CCCCC1 [Ch-11, H—LysLysChChLysChChLysLysChCh—NH2] (H-KK[Ac6c][Ac6c]K[Ac6c][Ac6c]KK[Ac6c][Ac6c]-NH2)",2.6,5.2,,,,,,,
"CC(C)(N)C(=O)NC(C)(C)C(=O)NC1(C(=O)N[C@@H](CCCCN)C(=O)NC(C)(C)C(=O)NC(C)(C)C(=O)NC2(C(=O)N[C@@H](CCCCN)C(=O)NC(C)(C)C(=O)NC(C)(C)C(N)=O)CCNCC2)CCNCC1 [Pi-10, H—AibAibApiLysAibAibApiLysAibAib—NH2] (H-[Aib][Aib][Api]K[Aib][Aib][Api]K[Aib][Aib]-NH2)",,,95,89,90,68,did not decrease antibacterial activity,,"Solubility in water (Solubility in water): readily soluble in water; Antibacterial activity against S. aureus (in words) [1]: moderate activity; Reduction of bacterial load compared to controls (in words) (B. abortus strain 2308): significantly reduced bacterial load; % Bacterial Reduction (B. abortus strain 2308): 90%; % Helicity (% α helix) ([5]; CD, 25 mM SDS micelles, 100-200 μM peptide): 43%; Infected Macrophage Survival Rate [6]: 55.0 ± 1.00; Antibacterial activity against E. coli (in words) [2]: good antibacterial activity"
"CC(=O)NC(C)(C)C(=O)NC(C)(C)C(=O)NC1(C(=O)N[C@@H](CCCCN)C(=O)NC(C)(C)C(=O)NC(C)(C)C(=O)NC2(C(=O)N[C@@H](CCCCN)C(=O)NC(C)(C)C(=O)NC(C)(C)C(N)=O)CCNCC2)CCNCC1 [Pi-10-ac, Ac—AibAibApiLysAibAibApiLysAibAib—NH2] (Ac-[Aib][Aib][Api]K[Aib][Aib][Api]K[Aib][Aib]-NH2)",,,92,89,88,49,,died immediately after treatment,
"CC(=O)N[C@@H](CCCCN)C(=O)N[C@@H](CCCCN)C(=O)NC(C)(C)C(=O)NC(C)(C)C(=O)N[C@@H](CCCCN)C(=O)NC(C)(C)C(=O)NC(C)(C)C(=O)N[C@@H](CCCCN)C(=O)N[C@@H](CCCCN)C(=O)NC(C)(C)C(=O)NC(C)(C)C(N)=O [Ai-11-ac, Ac—LysLysAibAibLysAibAibLysLysAibAib—NH2] (Ac-KK[Aib][Aib]K[Aib][Aib]KK[Aib][Aib]-NH2)",212,6.6,92,82,86,58.5,did not decrease antibacterial activity,,Effect of peptide treatment on normal macrophages (in words) [3]: small effect
"H-GIGKFLHSAKKFGKAFVGEIMNS-OH [magainin 2, reference compound]",,,,,,,destroyed antibacterial activity,,
"H-KAAKKAAKAAKKAA-NH2 [Al-14, H—LysAlaAlaLysLysAlaAlaLysAlaAlaLysLysAlaAla—NH2, reference compound]",>178,>178,,,,,,,% Bacterial Reduction (B. abortus strain 2308): −6%
"NCCCC[C@H](NC(=O)[C@H](CCCCN)NC(=O)C1(NC(=O)C2(NC(=O)[C@H](CCCCN)NC(=O)C3(NC(=O)C4(NC(=O)[C@H](CCCCN)NC(=O)[C@H](CCCCN)NC(=O)C5(NC(=O)C6(NC(=O)[C@@H](N)CCCCN)CCCCC6)CCCCC5)CCCCC4)CCCCC3)CCCCC2)CCCCC1)C(=O)NC1(C(N)=O)CCCCC1 [Ch-13, H—LysChChLysLysChChLysChChLysLysCh—NH2] (H-K[Ac6c][Ac6c]KK[Ac6c][Ac6c]K[Ac6c][Ac6c]KK[Ac6c]-NH2)",2.2,6.5,,,,,did not decrease antibacterial activity,died immediately after treatment,Survival of infected mice after treatment [4]: lived
